Our source for the IC50 values is patent publication US20240218022A1, “ANTI-VISTA MACROCYCLIC PEPTIDES AND COMPOSITIONS” (BRISTOL-MYERS SQUIBB COMPANY, priority 2022, published 2024).

Positions of bridges follow the written chain, without caps; N, C: chain ends. Non-standard residues stand in square brackets, D forms with d. Residues, ends and D or L forms follow the SMILES beside them. ξ: configuration not given here. *: point of attachment. Phe(2,4-F2) = N[C@@H](Cc1ccc(F)cc1F)C(=O)O; Phe(3-Br) = N[C@@H](Cc1cccc(Br)c1)C(=O)O; 2Nal = N[C@@H](Cc1ccc2ccccc2c1)C(=O)O; Cit = NC(=O)NCCC[C@H](N)C(=O)O; Gly(cPr) = N[C@H](C(=O)O)C1CC1; Ahp(2) = CCCCC[C@H](N)C(=O)O; NMeNle = CCCC[C@H](NC)C(=O)O; Tle = CC(C)(C)[C@H](N)C(=O)O; NHexGly = CCCCCCNCC(=O)O; Nle = CCCC[C@H](N)C(=O)O; Orn = NCCC[C@H](N)C(=O)O; ξS = NC(CO)C(=O)O; Allyl = C=CC*

In the first experiment the target is T1, mouse VISTA (mVISTA) (Mus musculus, UniProt Q9D659).
T1 construct: expressed in transfected cells; host or cells: Human embryonic kidney 293T cells
T1 sequence (Q9D659 33-308): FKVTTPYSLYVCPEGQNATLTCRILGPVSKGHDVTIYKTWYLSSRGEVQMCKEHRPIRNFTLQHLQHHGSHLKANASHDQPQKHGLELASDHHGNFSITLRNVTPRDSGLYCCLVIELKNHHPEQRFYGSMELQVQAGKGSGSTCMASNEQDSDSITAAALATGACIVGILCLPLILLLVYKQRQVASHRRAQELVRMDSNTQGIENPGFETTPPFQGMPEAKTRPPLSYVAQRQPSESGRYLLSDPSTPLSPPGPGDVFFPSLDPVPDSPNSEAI
The experiment is described as follows: Cell-Based Binding High-Content Assay For mVISTA (HC CBA mVISTA). The following applies: cell-based binding high-content assay, mVISTA; the 15th table; read-out: HC CBA mVISTA IC50. An outline of the steps: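 Competition of compound with a biotinylated peptide (final 2 nM, 30 min at RT) for binding to mVISTA on 293T cells, run under no-wash or wash (1 h compound preincubation then removal) formats. Readout by Alexa 647–streptavidin imaging on a high-content platform; four-parameter logistic fit gave IC50.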
As for `CCCCCCN1CC(=O)N[C@@H](Cc2ccc(O)cc2)C(=O)N[C@@H](CCCC)C(=O)N[C@@H](CC(=O)O)C(=O)N[C@@H](CCCNC(=N)N)C(=O)N[C@@H](CC(C)C)C(=O)N[C@@H](CCCCC)C(=O)N2CCC[C@H]2C(=O)N[C@@H](C(C)C)C(=O)N[C@@H](CC(=O)O)C(=O)N[C@H](C(=O)N[C@@H](CC(=O)O)C(N)=O)CSCC(=O)N[C@@H](Cc2ccc3ccccc3c2)C(=O)N[C@@H](Cc2c[nH]c3ccccc23)C(=O)N[C@@H](CC(=O)O)C1=O` [compound 1226] ({CH2CO}-[2Nal]WD[NHexGly]Y[Nle]DRL[Ahp(2)]PVDCD-NH2; thioether N-14), the IC50 stood at 14.4 nM. For the molecule `CCCCCCN1CC(=O)N[C@@H](Cc2ccc(O)cc2)C(=O)N[C@@H](CCCC)C(=O)N[C@@H](CC(=O)O)C(=O)N[C@@H](CCCN)C(=O)N[C@@H](CC(C)C)C(=O)N[C@@H](CCCCC)C(=O)N2CCC[C@H]2C(=O)N[C@@H](C(C)C)C(=O)N[C@@H](CC(=O)O)C(=O)N[C@H](C(=O)N[C@@H](CC(=O)O)C(N)=O)CSCC(=O)N[C@@H](Cc2ccc3ccccc3c2)C(=O)N[C@@H](Cc2c[nH]c3ccccc23)C(=O)N[C@@H](CC(=O)O)C1=O` [compound 1227] ({CH2CO}-[2Nal]WD[NHexGly]Y[Nle]D[Orn]L[Ahp(2)]PVDCD-NH2; thioether N-14), the IC50 stood at 32.2 nM. On to `CCCCCCN1CC(=O)N[C@@H](Cc2ccc(O)cc2)C(=O)N[C@@H](C(C)C)C(=O)NCC(=O)N[C@@H](CCCNC(=N)N)C(=O)N[C@@H](CC(C)C)C(=O)N[C@@H](CCCCC)C(=O)N2CCC[C@H]2C(=O)N[C@@H](C(C)C)C(=O)N[C@@H](CC(=O)O)C(=O)N[C@H](C(=O)NCC(N)=O)CSCC(=O)N[C@@H](Cc2ccc3ccccc3c2)C(=O)N[C@@H](Cc2c[nH]c3ccccc23)C(=O)N[C@@H](CC(=O)O)C1=O` [compound 1228] ({CH2CO}-[2Nal]WD[NHexGly]YVGRL[Ahp(2)]PVDCG-NH2; thioether N-14), for which the IC50 was determined as 27.1 nM. The same measure, in the same setting: the result for `CCCCCCN1CC(=O)N[C@@H](Cc2ccc(O)cc2)C(=O)N[C@@H](CCCC)C(=O)N[C@@H](CC(N)=O)C(=O)N[C@@H](CCCNC(=N)N)C(=O)N[C@@H](CC(C)C)C(=O)N[C@@H](CCCCC)C(=O)N2CCC[C@H]2C(=O)N[C@@H](C(C)C)C(=O)N[C@@H](CC(=O)O)C(=O)N[C@H](C(=O)NCC(=O)O)CSCC(=O)N[C@@H](Cc2ccc3ccccc3c2)C(=O)N[C@@H](Cc2c[nH]c3ccccc23)C(=O)N[C@@H](CC(=O)O)C1=O` [compound 1229] ({CH2CO}-[2Nal]WD[NHexGly]Y[Nle]NRL[Ahp(2)]PVDCG-OH; thioether N-14) reads 13.2 nM; that for `CCCCCCN1CC(=O)N[C@@H](Cc2ccc(O)cc2)C(=O)N[C@@H](C(C)C)C(=O)NCC(=O)N[C@@H](CCCNC(=N)N)C(=O)N[C@@H](CC(C)C)C(=O)N[C@@H](CCCCC)C(=O)N2CCC[C@H]2C(=O)N[C@@H](C(C)C)C(=O)N[C@@H](CCCNC(=N)N)C(=O)N[C@H](C(=O)NCC(=O)O)CSCC(=O)N[C@@H](Cc2ccc3ccccc3c2)C(=O)N[C@@H](Cc2c[nH]c3ccccc23)C(=O)N[C@@H](CC(=O)O)C1=O` [compound 1230] ({CH2CO}-[2Nal]WD[NHexGly]YVGRL[Ahp(2)]PVRCG-OH; thioether N-14), 5.7 nM; that for `CCCCCCN1CC(=O)N[C@@H](Cc2ccc(O)cc2)C(=O)N[C@@H](CCCC)C(=O)N[C@@H](CC(N)=O)C(=O)N[C@@H](CCCNC(=N)N)C(=O)N[C@@H](CC(C)C)C(=O)N[C@@H](CCCCC)C(=O)N2CCC[C@H]2C(=O)N[C@@H](C(C)C)C(=O)N[C@@H](C2CC2)C(=O)N[C@H](C(=O)NCC(=O)O)CSCC(=O)N[C@@H](Cc2ccc3ccccc3c2)C(=O)N[C@@H](Cc2c[nH]c3ccccc23)C(=O)N[C@@H](CC(=O)O)C1=O` [compound 1232] ({CH2CO}-[2Nal]WD[NHexGly]Y[Nle]NRL[Ahp(2)]PV[Gly(cPr)]CG-OH; thioether N-14), 36 nM.

Regarding `CCCCCCN1CC(=O)N[C@@H](Cc2ccc(O)cc2)C(=O)N[C@@H](CCCC)C(=O)N[C@@H](CC(N)=O)C(=O)N[C@@H](CCCNC(N)=O)C(=O)N[C@@H](CC(C)C)C(=O)N[C@@H](CCCCC)C(=O)N2CCC[C@H]2C(=O)N[C@@H](C(C)C)C(=O)N[C@@H](CC(=O)O)C(=O)N[C@H](C(=O)NCC(=O)O)CSCC(=O)N[C@@H](Cc2ccc3ccccc3c2)C(=O)N[C@@H](Cc2c[nH]c3ccccc23)C(=O)N[C@@H](CC(=O)O)C1=O` [compound 1233] ({CH2CO}-[2Nal]WD[NHexGly]Y[Nle]N[Cit]L[Ahp(2)]PVDCG-OH; thioether N-14), the IC50 came out at 10.5 nM.

On to `CCCCCCN1CC(=O)N[C@@H](Cc2ccc(O)cc2)C(=O)N[C@@H](CCCC)C(=O)N[C@@H](CC(=O)O)C(=O)N[C@@H](CCCNC(=N)N)C(=O)N[C@@H](CC(C)C)C(=O)N[C@@H](CCCCC)C(=O)N2CCC[C@H]2C(=O)N[C@@H](C(C)C)C(=O)N[C@@H](CC(=O)O)C(=O)N[C@H](C(=O)N[C@@H](CO)C(N)=O)CSCC(=O)N[C@@H](Cc2ccc3ccccc3c2)C(=O)N[C@@H](Cc2c[nH]c3ccccc23)C(=O)N[C@@H](CC(=O)O)C1=O` [compound 1235] ({CH2CO}-[2Nal]WD[NHexGly]Y[Nle]DRL[Ahp(2)]PVDCS-NH2; thioether N-14), for which the IC50 came to 13.4 nM.

Still in this experiment, the particulars now being: read-out: HC CBA mVISTA IC50.
On to `CCCCCCN1CC(=O)N[C@@H](Cc2ccc(O)cc2)C(=O)N[C@@H](CCCCC)C(=O)N[C@@H](CC(N)=O)C(=O)N[C@@H](CCCNC(=N)N)C(=O)N(C)[C@@H](CCCC)C(=O)N[C@@H](CCCCC)C(=O)N2CCC[C@H]2C(=O)N[C@@H](C(C)C)C(=O)N[C@@H](C(C)C)C(=O)N[C@H](C(=O)NC(CO)C(=O)O)CSCC(=O)N[C@@H](Cc2ccc(F)cc2F)C(=O)N[C@@H](Cc2ccc(F)cc2F)C(=O)N[C@@H](CC(=O)O)C1=O` (stereo partly drawn) [compound 1219] ({CH2CO}-[Phe(2,4-F2)][Phe(2,4-F2)]D[NHexGly]Y[Ahp(2)]NR[NMeNle][Ahp(2)]PVVC[ξS]-OH; thioether N-14), for which the 50% inhibitory concentration (IC50) was determined as 33.9 nM. For `CCCCCCN1CC(=O)N[C@@H](Cc2ccc(O)cc2)C(=O)N[C@@H](CCCCC)C(=O)N[C@@H](CC(N)=O)C(=O)N[C@@H](CCCNC(=N)N)C(=O)N(C)[C@@H](CCCC)C(=O)N[C@@H](CCCCC)C(=O)N2CCC[C@H]2C(=O)N[C@@H](C(C)C)C(=O)N[C@@H](C(C)C)C(=O)N[C@H](C(=O)NCC(=O)O)CSCC(=O)N[C@@H](Cc2ccc(F)cc2F)C(=O)N[C@@H](Cc2c[nH]c3ccccc23)C(=O)N[C@@H](CC(=O)O)C1=O` [compound 1220] ({CH2CO}-[Phe(2,4-F2)]WD[NHexGly]Y[Ahp(2)]NR[NMeNle][Ahp(2)]PVVCG-OH; thioether N-14), the IC50 is 24.7 nM. On to `CCCCCCN1CC(=O)N[C@@H](Cc2ccc(O)cc2)C(=O)N[C@@H](CCCCC)C(=O)N[C@@H](CC(N)=O)C(=O)N[C@@H](CCCNC(=N)N)C(=O)N(C)[C@@H](CCCC)C(=O)N[C@@H](CCCCC)C(=O)N2CCC[C@H]2C(=O)N[C@@H](C(C)C)C(=O)N[C@@H](C(C)C)C(=O)N[C@H](C(=O)NC(CO)C(=O)O)CSCC(=O)N[C@@H](Cc2ccc(F)cc2F)C(=O)N[C@@H](Cc2c[nH]c3ccccc23)C(=O)N[C@@H](CC(=O)O)C1=O` (stereo partly drawn) [compound 1221] ({CH2CO}-[Phe(2,4-F2)]WD[NHexGly]Y[Ahp(2)]NR[NMeNle][Ahp(2)]PVVC[ξS]-OH; thioether N-14), for which the IC50 came to 20.3 nM. The same measure, in the same setting: under `C=CCOc1ccc(C[C@@H]2NC(=O)CSC[C@@H](C(=O)NCC(N)=O)NC(=O)[C@H](CO)NC(=O)[C@H](C(C)C)NC(=O)[C@@H]3CCCN3C(=O)[C@H](CCCCC)NC(=O)[C@H](CCCC)N(C)C(=O)[C@H](CCCNC(=N)N)NC(=O)[C@H](CC(N)=O)NC(=O)[C@H](CC(C)C)NC(=O)[C@H](Cc3ccc(O)cc3)NC(=O)CN(CCCCCC)C(=O)[C@H](CC(=O)O)NC(=O)[C@H](Cc3ccc(O)cc3)NC2=O)cc1` [compound 1222] ({CH2CO}-Y(Allyl)YD[NHexGly]YLNR[NMeNle][Ahp(2)]PVSCG-NH2; thioether N-14) stands 21.7 nM. Regarding `C=CCOc1ccc(C[C@@H]2NC(=O)CSC[C@@H](C(=O)NCC(N)=O)NC(=O)[C@H](CO)NC(=O)[C@H](C(C)(C)C)NC(=O)[C@@H]3CCCN3C(=O)[C@H](CCCCC)NC(=O)[C@H](CCCC)N(C)C(=O)[C@H](CCCNC(=N)N)NC(=O)[C@H](CC(N)=O)NC(=O)[C@H](CC(C)C)NC(=O)[C@H](Cc3ccc(O)cc3)NC(=O)CN(CCCCCC)C(=O)[C@H](CC(=O)O)NC(=O)[C@H](Cc3ccc(O)cc3)NC2=O)cc1` [compound 1223] ({CH2CO}-Y(Allyl)YD[NHexGly]YLNR[NMeNle][Ahp(2)]P[Tle]SCG-NH2; thioether N-14), the half-maximal inhibitory concentration (IC50) worked out at 18.1 nM. On to `CCCCCCN1CC(=O)N[C@@H](Cc2ccc(O)cc2)C(=O)N[C@@H](CC(C)C)C(=O)N[C@@H](CC(N)=O)C(=O)N[C@@H](CCCNC(=N)N)C(=O)N(C)[C@@H](CCCC)C(=O)N[C@@H](CCCCC)C(=O)N2CCC[C@H]2C(=O)N[C@@H](C(C)C)C(=O)N[C@@H](CO)C(=O)N[C@H](C(=O)NCC(N)=O)CSCC(=O)N[C@@H](Cc2cccc(Br)c2)C(=O)N[C@@H](Cc2ccc(O)cc2)C(=O)N[C@@H](CC(=O)O)C1=O` [compound 1224] ({CH2CO}-[Phe(3-Br)]YD[NHexGly]YLNR[NMeNle][Ahp(2)]PVSCG-NH2; thioether N-14), for which the IC50 was determined as 22.6 nM.

In the case of `CCCCCCN1CC(=O)N[C@@H](Cc2ccc(O)cc2)C(=O)N[C@@H](CC(C)C)C(=O)N[C@@H](CC(N)=O)C(=O)N[C@@H](CCCNC(=N)N)C(=O)N(C)[C@@H](CCCC)C(=O)N[C@@H](CCCCC)C(=O)N2CCC[C@H]2C(=O)N[C@@H](C(C)(C)C)C(=O)N[C@@H](CO)C(=O)N[C@H](C(=O)NCC(N)=O)CSCC(=O)N[C@@H](Cc2cccc(Br)c2)C(=O)N[C@@H](Cc2ccc(O)cc2)C(=O)N[C@@H](CC(=O)O)C1=O` [compound 1225] ({CH2CO}-[Phe(3-Br)]YD[NHexGly]YLNR[NMeNle][Ahp(2)]P[Tle]SCG-NH2; thioether N-14), the IC50 was 31.2 nM.
